According to patent US9221827B2, “Antimicrobial compounds and methods of making and using the same” (Melinta Therapeutics, Inc., priority 2011, dated 2015):

What follows are compounds tested on Escherichia coli strain ATCC25922 (assay: standard microdilution assay to determine minimum inhibitory concentrations (MICs)). Settings: Escherichia coli strain ATCC25922, microdilution.
Type: cell-based
Procedure, shortened: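 MICs come from CLSI-guided microdilution in 100 μl, run alongside reference-strain performance standards. Values appear as "+" or "−" relative to 16 micrograms/ml, with "N/A" marking missing data.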
In the case of `C[C@H](N)CCCc1cc(-c2cc3cn(-c4ccc([C@H](C)NCCCNC(=N)N)cc4)c(=O)nc3[nH]2)cc2c1OCCO2` [Compound 469], the “E. coli ATCC25922 MIC” value is reported as “+ (a “+” indicates that the compound has an MIC value of 16 micrograms/ml or less)”. In the case of `C[C@H](N)CCCc1cc(SC(F)(F)F)c(F)c(-c2cc3cn(-c4ccc([C@H](C)NCCCNC(=N)N)cc4)c(=O)nc3[nH]2)c1` [Compound 471], the “E. coli ATCC25922 MIC” value is reported as “+ (a “+” indicates that the compound has an MIC value of 16 micrograms/ml or less)”.

Same assay, conditions: Escherichia coli strain ATCC25922, standard microdilution assay
In the case of `CCC[C@H](NCCCNC(=N)N)c1ccc(-n2cc3cc(-c4cc(CCC[C@H](C)N)cc(C(F)(F)F)c4)[nH]c3nc2=O)cc1` [Compound 427], the “E. coli ATCC25922 MIC” value is reported as “+ (a “+” indicates that the compound has an MIC value of 16 micrograms/ml or less)”. `C[C@H](N)CCCc1cc(-c2cc3cn(-c4ccc([C@H](C)NCCCNC(=N)N)cc4)c(=O)nc3[nH]2)cc(Cl)n1` [Compound 428] was tested, and the “E. coli ATCC25922 MIC” value was “+ (a “+” indicates that the compound has an MIC value of 16 micrograms/ml or less)”. For `CC(C)Cc1cc(CCC[C@H](C)N)cc(-c2cc3cn(-c4ccc(CNCCCNC(=N)N)cc4)c(=O)nc3[nH]2)c1F` [Compound 431], the “E. coli ATCC25922 MIC” value was “+ (a “+” indicates that the compound has an MIC value of 16 micrograms/ml or less)”. For `CC(C)Cc1cc(CCC[C@H](C)N)cc(-c2cc3cn(-c4ccc([C@H](C)NCCCNC(=N)N)cc4)c(=O)nc3[nH]2)c1F` [Compound 432], the “E. coli ATCC25922 MIC” value was “+ (a “+” indicates that the compound has an MIC value of 16 micrograms/ml or less)”. With `CC(C)[C@H](NCCCNC(=N)N)c1ccc(-n2cc3cc(-c4cc(CCC[C@H](C)N)cc(Cl)c4F)[nH]c3nc2=O)cc1` [Compound 433] the “E. coli ATCC25922 MIC” value was “+ (a “+” indicates that the compound has an MIC value of 16 micrograms/ml or less)”. With `C[C@H](N)CCCc1cc(-c2cc3cn(-c4ccc([C@H](C)NCCCNC(=N)N)cc4)c(=O)nc3[nH]2)cc(C(C)(C)C)c1` [Compound 434] the “E. coli ATCC25922 MIC” value was “+ (a “+” indicates that the compound has an MIC value of 16 micrograms/ml or less)”. For `N=C(N)NCCCNCc1ccc(-n2cc3cc(-c4cc(OC(F)(F)F)cc(C5CCC(CN)O5)c4)[nH]c3nc2=O)cc1` (centres unmarked) [Compound 435], the “E. coli ATCC25922 MIC” value was “+ (a “+” indicates that the compound has an MIC value of 16 micrograms/ml or less)”. For `CC(NCCCNC(=N)N)c1ccc(-n2cc3cc(-c4cc(OC(F)(F)F)cc(C5CCC(CN)O5)c4)[nH]c3nc2=O)cc1` (centres unmarked) [Compound 436], the “E. coli ATCC25922 MIC” value was “+ (a “+” indicates that the compound has an MIC value of 16 micrograms/ml or less)”. `N=C(N)NCCCNCc1ccc(-n2cc3cc(-c4cc(OC(F)(F)F)cc(C5CCC(CN)O5)c4)[nH]c3nc2=O)cc1` (centres unmarked) [Compound 437] was tested, and the “E. coli ATCC25922 MIC” value was “+ (a “+” indicates that the compound has an MIC value of 16 micrograms/ml or less)”. `CC(NCCCNC(=N)N)c1ccc(-n2cc3cc(-c4cc(OC(F)(F)F)cc(C5CCC(CN)O5)c4)[nH]c3nc2=O)cc1` (centres unmarked) [Compound 438] was tested, and the “E. coli ATCC25922 MIC” value was “+ (a “+” indicates that the compound has an MIC value of 16 micrograms/ml or less)”. `C[C@H](N)CCCc1cc(-c2cc3cn(-c4ccc(CNCCCNC(=N)N)cc4)c(=O)nc3[nH]2)cc(C(C)(C)C)c1` [Compound 439] was tested, and the “E. coli ATCC25922 MIC” value was “+ (a “+” indicates that the compound has an MIC value of 16 micrograms/ml or less)”. For `C[C@H](N)CCCc1cc2c(c(-c3cc4cn(-c5ccc([C@H](C)NCCCNC(=N)N)cc5)c(=O)nc4[nH]3)c1)COC2` [Compound 441], the “E. coli ATCC25922 MIC” value was “+ (a “+” indicates that the compound has an MIC value of 16 micrograms/ml or less)”. For `C[C@H](N)CCCc1cc2c(c(-c3cc4cn(-c5ccc(CNCCCNC(=N)N)cc5)c(=O)nc4[nH]3)c1)COC2` [Compound 442], the “E. coli ATCC25922 MIC” value was “+ (a “+” indicates that the compound has an MIC value of 16 micrograms/ml or less)”. With `C[C@H](N)CCCc1cc(-c2cc3cn(-c4ccc([C@H](C)NCCCNC(=N)N)cc4)c(=O)nc3[nH]2)cc2c1COC2` [Compound 443] the “E. coli ATCC25922 MIC” value was “+ (a “+” indicates that the compound has an MIC value of 16 micrograms/ml or less)”. In the case of `C[C@H](N)CCCc1cc(-c2cc3cn(-c4ccc(CNCCCNC(=N)N)cc4)c(=O)nc3[nH]2)cc2c1COC2` [Compound 444], the “E. coli ATCC25922 MIC” value is reported as “+ (a “+” indicates that the compound has an MIC value of 16 micrograms/ml or less)”. For `COC[C@H](N)CCCc1cc(Cl)c(F)c(-c2cc3cn(-c4ccc(CNCCCNC(=N)N)cc4)c(=O)nc3[nH]2)c1` [Compound 445], the “E. coli ATCC25922 MIC” value was “+ (a “+” indicates that the compound has an MIC value of 16 micrograms/ml or less)”. In the case of `Cc1c(-c2cc3cn(-c4ccc(CNCCCNC(=N)N)cc4)c(=O)nc3[nH]2)cc(CCC[C@H](C)N)cc1C(C)C` [Compound 446], the “E. coli ATCC25922 MIC” value is reported as “+ (a “+” indicates that the compound has an MIC value of 16 micrograms/ml or less)”. For `CC(C)c1cc(CCC[C@H](C)N)cc(-c2cc3cn(-c4ccc([C@H](C)NCCCNC(=N)N)cc4)c(=O)nc3[nH]2)c1F` [Compound 447], the “E. coli ATCC25922 MIC” value was “+ (a “+” indicates that the compound has an MIC value of 16 micrograms/ml or less)”. For `N=C(N)NCCCNCc1ccc(-n2cc3cc(-c4cc(CC5CCC(N)CC5)cc(Cl)c4F)[nH]c3nc2=O)cc1` (centres unmarked) [Compound 448], the “E. coli ATCC25922 MIC” value was “+ (a “+” indicates that the compound has an MIC value of 16 micrograms/ml or less)”. For `C[C@H](NCCCNC(=N)N)c1ccc(-n2cc3cc(-c4cc(CC5CCC(N)CC5)cc(Cl)c4F)[nH]c3nc2=O)cc1` (some centres unmarked) [Compound 449], the “E. coli ATCC25922 MIC” value was “+ (a “+” indicates that the compound has an MIC value of 16 micrograms/ml or less)”. `N=C(N)NCCCNCc1ccc(-n2cc3cc(-c4cc(C5CCC(CN)CC5)cc(Cl)c4F)[nH]c3nc2=O)cc1` (centres unmarked) [Compound 450] was tested, and the “E. coli ATCC25922 MIC” value was “+ (a “+” indicates that the compound has an MIC value of 16 micrograms/ml or less)”. In the case of `C[C@H](NCCCNC(=N)N)c1ccc(-n2cc3cc(-c4cc(C5CCC(CN)CC5)cc(Cl)c4F)[nH]c3nc2=O)cc1` (some centres unmarked) [Compound 451], the “E. coli ATCC25922 MIC” value is reported as “+ (a “+” indicates that the compound has an MIC value of 16 micrograms/ml or less)”. With `Cc1c(CC(C)C)cc(CCC[C@H](C)N)cc1-c1cc2cn(-c3ccc(CNCCCNC(=N)N)cc3)c(=O)nc2[nH]1` [Compound 452] the “E. coli ATCC25922 MIC” value was “+ (a “+” indicates that the compound has an MIC value of 16 micrograms/ml or less)”. For `Cc1c(CC(C)C)cc(CCC[C@H](C)N)cc1-c1cc2cn(-c3ccc([C@H](C)NCCCNC(=N)N)cc3)c(=O)nc2[nH]1` [Compound 453], the “E. coli ATCC25922 MIC” value was “+ (a “+” indicates that the compound has an MIC value of 16 micrograms/ml or less)”. For `CC(C)(N)COCc1cc(-c2cc3cn(-c4ccc(CNCCCNC(=N)N)cc4)c(=O)nc3[nH]2)cc(C(F)(F)F)c1` [Compound 454], the “E. coli ATCC25922 MIC” value was “+ (a “+” indicates that the compound has an MIC value of 16 micrograms/ml or less)”. With `C[C@H](NCCCNC(=N)N)c1ccc(-n2cc3cc(-c4cc(COCC(C)(C)N)cc(C(F)(F)F)c4)[nH]c3nc2=O)cc1` [Compound 455] the “E. coli ATCC25922 MIC” value was “+ (a “+” indicates that the compound has an MIC value of 16 micrograms/ml or less)”. In the case of `C[C@H](N)CCCc1cc2c(c(-c3cc4cn(-c5ccc([C@H](C)NCCCNC(=N)N)cc5)c(=O)nc4[nH]3)c1)OCCC2=O` [Compound 456], the “E. coli ATCC25922 MIC” value is reported as “+ (a “+” indicates that the compound has an MIC value of 16 micrograms/ml or less)”. With `C[C@H](N)CCCc1cc2c(c(-c3cc4cn(-c5ccc([C@H](C)NCCCNC(=N)N)cc5)c(=O)nc4[nH]3)c1)CC=C2` [Compound 457] the “E. coli ATCC25922 MIC” value was “+ (a “+” indicates that the compound has an MIC value of 16 micrograms/ml or less)”. In the case of `C[C@H](N)CCCc1cc(CC(C)(C)C)c(F)c(-c2cc3cn(-c4ccc([C@H](C)NCCCNC(=N)N)cc4)c(=O)nc3[nH]2)c1` [Compound 458], the “E. coli ATCC25922 MIC” value is reported as “+ (a “+” indicates that the compound has an MIC value of 16 micrograms/ml or less)”. With `N=C(N)NCCCNCc1ccc(-n2cc3cc(-c4cc(COC5COCC5N)cc(OC(F)(F)F)c4)[nH]c3nc2=O)cc1` (centres unmarked) [Compound 459] the “E. coli ATCC25922 MIC” value was “+ (a “+” indicates that the compound has an MIC value of 16 micrograms/ml or less)”. For `C[C@H](NCCCNC(=N)N)c1ccc(-n2cc3cc(-c4cc(COC5COCC5N)cc(OC(F)(F)F)c4)[nH]c3nc2=O)cc1` (some centres unmarked) [Compound 460], the “E. coli ATCC25922 MIC” value was “+ (a “+” indicates that the compound has an MIC value of 16 micrograms/ml or less)”. For `C[C@H](N)CCCc1cc2c(c(-c3cc4cn(-c5ccc([C@H](C)NCCCNC(=N)N)cc5)c(=O)nc4[nH]3)c1)CCC2=O` [Compound 461], the “E. coli ATCC25922 MIC” value was “+ (a “+” indicates that the compound has an MIC value of 16 micrograms/ml or less)”. For `C[C@H](N)CCCc1cc(F)c(F)c(-c2cc3cn(-c4ccc([C@H](C)NCCCNC(=N)N)cc4)c(=O)nc3[nH]2)c1` [Compound 462], the “E. coli ATCC25922 MIC” value was “+ (a “+” indicates that the compound has an MIC value of 16 micrograms/ml or less)”. In the case of `C[C@H](N)CCCc1cc(F)c(F)c(-c2cc3cn(-c4ccc(CNCCCNC(=N)N)cc4)c(=O)nc3[nH]2)c1` [Compound 463], the “E. coli ATCC25922 MIC” value is reported as “+ (a “+” indicates that the compound has an MIC value of 16 micrograms/ml or less)”. For `C[C@H](N)CCCc1cc(-c2cc3cn(-c4ccc([C@H](C)NCCCNC(=N)N)cc4)c(=O)nc3[nH]2)cc(F)c1F` [Compound 464], the “E. coli ATCC25922 MIC” value was “+ (a “+” indicates that the compound has an MIC value of 16 micrograms/ml or less)”. In the case of `C[C@H](N)CCCc1cc(-c2cc3cn(-c4ccc(CNCCCNC(=N)N)cc4)c(=O)nc3[nH]2)cc(F)c1F` [Compound 465], the “E. coli ATCC25922 MIC” value is reported as “+ (a “+” indicates that the compound has an MIC value of 16 micrograms/ml or less)”. `C[C@H](N)CCCc1cc(-c2cc3cn(-c4ccc([C@H](C)NCCCNC(=N)N)cc4)c(=O)nc3[nH]2)c(F)c(C2CCOC2)c1` (some centres unmarked) [Compound 466] was tested, and the “E. coli ATCC25922 MIC” value was “+ (a “+” indicates that the compound has an MIC value of 16 micrograms/ml or less)”. `Cc1cc(CCC[C@H](C)N)cc(-c2cc3cn(-c4ccc(CNCCCNC(=N)N)cc4)c(=O)nc3[nH]2)c1C` [Compound 467] was tested, and the “E. coli ATCC25922 MIC” value was “+ (a “+” indicates that the compound has an MIC value of 16 micrograms/ml or less)”. For `Cc1cc(CCC[C@H](C)N)cc(-c2cc3cn(-c4ccc([C@H](C)NCCCNC(=N)N)cc4)c(=O)nc3[nH]2)c1C` [Compound 468], the “E. coli ATCC25922 MIC” value was “+ (a “+” indicates that the compound has an MIC value of 16 micrograms/ml or less)”.
